Reference: patent US12466813B2, “PRC1 inhibitors and methods of treatment therewith” (The Regents of the University of Michigan, priority 2018, dated 2025)
Entries after “also recorded” stand apart in the source; their conditions may differ.

Legend:
RING1B-BMI1 [1] = molecular target: T1, RING1B-BMI1 (Homo sapiens, UniProt Q99496); test: ITC binding of COMPOUND 1 to RING1B-BMI1
T1 sequence (Q99496 1-336): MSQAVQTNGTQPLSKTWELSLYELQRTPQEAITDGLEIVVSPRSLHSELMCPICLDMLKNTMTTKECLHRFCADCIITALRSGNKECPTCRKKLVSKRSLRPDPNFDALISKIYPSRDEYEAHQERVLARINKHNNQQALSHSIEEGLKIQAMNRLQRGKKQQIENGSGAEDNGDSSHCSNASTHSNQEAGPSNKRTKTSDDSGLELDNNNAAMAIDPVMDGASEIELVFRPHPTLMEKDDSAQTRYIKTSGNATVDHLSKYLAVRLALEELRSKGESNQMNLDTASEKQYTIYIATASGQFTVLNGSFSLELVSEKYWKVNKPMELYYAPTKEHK
T1 sequence (P35226 1-326 partner): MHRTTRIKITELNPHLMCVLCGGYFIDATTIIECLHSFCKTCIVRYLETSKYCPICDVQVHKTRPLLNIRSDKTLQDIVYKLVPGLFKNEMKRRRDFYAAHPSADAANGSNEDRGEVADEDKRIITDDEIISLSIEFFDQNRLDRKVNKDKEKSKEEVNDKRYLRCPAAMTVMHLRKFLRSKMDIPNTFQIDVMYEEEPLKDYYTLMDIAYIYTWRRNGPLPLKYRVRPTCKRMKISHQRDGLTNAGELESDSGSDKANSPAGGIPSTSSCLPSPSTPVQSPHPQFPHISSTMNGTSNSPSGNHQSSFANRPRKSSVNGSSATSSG
Protocol: FIG. 1. […] A. structure of COMPOUND 1. B. ITC experiments showing the binding of COMPOUND 1 to RING1B-BMI1. C. Assigned NMR spectrum of RING1B-BMI1 with DMSO and COMPOUND 1 in 1-2 molar ratio.
(§1) Experiments were conducted during development of embodiments herein to develop small molecule inhibitors of PRC1 by targeting the Ring1B-BMI1 E3 ligase. These compounds bind directly to Ring1B-Bmi1 with low-micromolar affinity and inhibit PRC1 in vitro and in cells. […] Experiments were conducted during development of embodiments herein to test COMPOUND 1 in leukemia stem cell models represented by TEX cells (Ref. 22; herein incorporated by reference in its entirety) and M9-ENL1 cells (Ref. 23; herein incorporated by reference in its entirety). […] In some embodiments, COMPOUND 1 and COMPOUND 1 analogs are find use as agents in targeting leukemia and other cancer stem cells.

RING1B-BMI1 [2] = molecular target: T1, RING1B-BMI1; test: KD classes of Table A (direct binding to Ring1B-Bmi1); settings: class given in Table A
RING1B-BMI1 [3] = molecular target: T1, RING1B-BMI1; test: RING1B-BMI1 E3 ligase (H2Aub) activity in vitro; format: biochemical
Protocol: (§2) FIG. 2. COMPOUND 1 inhibits PRC1 in vitro. […] C.
as §1

RING1B-PCGF1 = molecular target: T2, RING1B-PCGF1 (Homo sapiens, UniProt Q99496); test: RING1B-PCGF1 E3 ligase activity in vitro; format: biochemical; settings: FIG. 2B
T2 sequence (Q99496 1-336): T1 sequence (Q99496 1-336)
T2 sequence (Q9BSM1 1-259 partner): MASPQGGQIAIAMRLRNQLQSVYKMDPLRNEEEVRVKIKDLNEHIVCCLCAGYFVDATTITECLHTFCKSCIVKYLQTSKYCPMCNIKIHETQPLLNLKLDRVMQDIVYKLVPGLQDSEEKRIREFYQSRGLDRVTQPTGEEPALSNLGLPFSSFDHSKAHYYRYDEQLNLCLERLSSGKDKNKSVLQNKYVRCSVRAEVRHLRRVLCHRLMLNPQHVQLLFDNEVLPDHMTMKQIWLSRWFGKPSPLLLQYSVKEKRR
Excerpt: as §2

BRCA1-BARD1 = BRCA1-BARD1 (Homo sapiens, UniProt P38398+Q99728); test: BRCA1-BARD1 E3 ligase selectivity; format: biochemical; settings: FIG. 2
Protocol: as §2, §1

TRIM37 = molecular target: T3, TRIM37 (Homo sapiens, UniProt O94972); test: TRIM37 E3 ligase selectivity; format: biochemical; settings: FIG. 2
T3 sequence (O94972 1-964): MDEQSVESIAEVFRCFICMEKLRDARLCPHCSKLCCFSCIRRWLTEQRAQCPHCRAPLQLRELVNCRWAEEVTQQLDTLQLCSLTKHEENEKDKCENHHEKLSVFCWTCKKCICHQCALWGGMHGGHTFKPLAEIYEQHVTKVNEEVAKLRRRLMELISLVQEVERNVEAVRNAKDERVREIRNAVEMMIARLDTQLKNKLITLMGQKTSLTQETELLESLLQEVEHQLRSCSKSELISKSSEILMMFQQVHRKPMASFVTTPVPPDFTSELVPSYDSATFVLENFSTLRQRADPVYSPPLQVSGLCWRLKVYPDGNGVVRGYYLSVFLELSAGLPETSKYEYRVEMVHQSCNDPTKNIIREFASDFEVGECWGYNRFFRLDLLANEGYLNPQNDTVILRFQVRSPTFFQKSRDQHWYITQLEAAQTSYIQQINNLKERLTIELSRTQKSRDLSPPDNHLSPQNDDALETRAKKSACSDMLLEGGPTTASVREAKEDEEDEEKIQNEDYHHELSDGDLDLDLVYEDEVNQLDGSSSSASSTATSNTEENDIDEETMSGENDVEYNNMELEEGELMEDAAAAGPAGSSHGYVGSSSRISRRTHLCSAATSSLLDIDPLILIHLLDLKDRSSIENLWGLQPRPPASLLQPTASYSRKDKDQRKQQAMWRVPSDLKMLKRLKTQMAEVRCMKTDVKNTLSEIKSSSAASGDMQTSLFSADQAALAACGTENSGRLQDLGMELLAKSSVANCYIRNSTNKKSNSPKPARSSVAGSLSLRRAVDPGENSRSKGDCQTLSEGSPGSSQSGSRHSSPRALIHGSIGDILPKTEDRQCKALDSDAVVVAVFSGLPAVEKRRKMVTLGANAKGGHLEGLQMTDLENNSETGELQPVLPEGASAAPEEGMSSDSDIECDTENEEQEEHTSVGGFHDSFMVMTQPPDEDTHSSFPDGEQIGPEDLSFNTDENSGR
Protocol: as §2, §1

[4] = molecular target: T4, RING1B-BMI1 interaction with nucleosome (Homo sapiens, UniProt Q99496); test: EMSA assay, RING1B-BMI1 interaction with nucleosome; format: binding; settings: FIG. 2D
T4 sequence (Q99496 1-336): T1 sequence (Q99496 1-336)
T4 sequence (P35226 1-326 partner): T1 sequence (P35226 1-326 partner)
Excerpt: as §2

[5] = system: PRC1 complex in leukemia K562 cells; test: H2Aub level / PRC1 activity in K562 cells; format: cell-based; settings: FIG. 3
Protocol: FIG. 3. COMPOUND 1 inhibits PRC1 in K562 cells. Knockdown of BMI1 and RING1B in K562 cells results in decrease in H2Aub.
as §1

H2Aub in TEX cells = test: H2Aub, RNA-seq and ChIP-seq in TEX cells; format: cell-based; settings: FIG. 4
Protocol: (§3) FIGS. 4A-F. COMPOUND 1 inhibits PRC1 in TEX cells. FIG. 4A. Inhibition of H2Aub in TEX cells. FIG. 4B. Differentiation of TEX cells upon treatment with COMPOUND 1. […] FIG. 4C. GSEA analysis of TEX cells showing revers of stem cell signature. FIG. 4D. […] FIG. 4E. Gene expression changes upon treatment with COMPOUND 1. FIG. 4F.
as §1

TEX cells = test: Differentiation and CD34 marker of TEX cells; format: cell-based; settings: FIG. 4
Protocol: as §3, §1

M9-ENL1 cells [6] = test: Colony formation of M9-ENL1 cells; format: cell-based; settings: FIG. 5
Protocol: as §1

M9-ENL1 cells [7] = test: Transplantation of treated M9-ENL1 cells into mice; format: in vivo; settings: then transplanted into mice, FIG. 5
Protocol: as §1

primary AML samples = test: Primary AML samples: H2Aub, colony formation, CD34; format: cell-based; settings: FIG. 6

BRCA1-BARD1, sequence (P38398 whole entry): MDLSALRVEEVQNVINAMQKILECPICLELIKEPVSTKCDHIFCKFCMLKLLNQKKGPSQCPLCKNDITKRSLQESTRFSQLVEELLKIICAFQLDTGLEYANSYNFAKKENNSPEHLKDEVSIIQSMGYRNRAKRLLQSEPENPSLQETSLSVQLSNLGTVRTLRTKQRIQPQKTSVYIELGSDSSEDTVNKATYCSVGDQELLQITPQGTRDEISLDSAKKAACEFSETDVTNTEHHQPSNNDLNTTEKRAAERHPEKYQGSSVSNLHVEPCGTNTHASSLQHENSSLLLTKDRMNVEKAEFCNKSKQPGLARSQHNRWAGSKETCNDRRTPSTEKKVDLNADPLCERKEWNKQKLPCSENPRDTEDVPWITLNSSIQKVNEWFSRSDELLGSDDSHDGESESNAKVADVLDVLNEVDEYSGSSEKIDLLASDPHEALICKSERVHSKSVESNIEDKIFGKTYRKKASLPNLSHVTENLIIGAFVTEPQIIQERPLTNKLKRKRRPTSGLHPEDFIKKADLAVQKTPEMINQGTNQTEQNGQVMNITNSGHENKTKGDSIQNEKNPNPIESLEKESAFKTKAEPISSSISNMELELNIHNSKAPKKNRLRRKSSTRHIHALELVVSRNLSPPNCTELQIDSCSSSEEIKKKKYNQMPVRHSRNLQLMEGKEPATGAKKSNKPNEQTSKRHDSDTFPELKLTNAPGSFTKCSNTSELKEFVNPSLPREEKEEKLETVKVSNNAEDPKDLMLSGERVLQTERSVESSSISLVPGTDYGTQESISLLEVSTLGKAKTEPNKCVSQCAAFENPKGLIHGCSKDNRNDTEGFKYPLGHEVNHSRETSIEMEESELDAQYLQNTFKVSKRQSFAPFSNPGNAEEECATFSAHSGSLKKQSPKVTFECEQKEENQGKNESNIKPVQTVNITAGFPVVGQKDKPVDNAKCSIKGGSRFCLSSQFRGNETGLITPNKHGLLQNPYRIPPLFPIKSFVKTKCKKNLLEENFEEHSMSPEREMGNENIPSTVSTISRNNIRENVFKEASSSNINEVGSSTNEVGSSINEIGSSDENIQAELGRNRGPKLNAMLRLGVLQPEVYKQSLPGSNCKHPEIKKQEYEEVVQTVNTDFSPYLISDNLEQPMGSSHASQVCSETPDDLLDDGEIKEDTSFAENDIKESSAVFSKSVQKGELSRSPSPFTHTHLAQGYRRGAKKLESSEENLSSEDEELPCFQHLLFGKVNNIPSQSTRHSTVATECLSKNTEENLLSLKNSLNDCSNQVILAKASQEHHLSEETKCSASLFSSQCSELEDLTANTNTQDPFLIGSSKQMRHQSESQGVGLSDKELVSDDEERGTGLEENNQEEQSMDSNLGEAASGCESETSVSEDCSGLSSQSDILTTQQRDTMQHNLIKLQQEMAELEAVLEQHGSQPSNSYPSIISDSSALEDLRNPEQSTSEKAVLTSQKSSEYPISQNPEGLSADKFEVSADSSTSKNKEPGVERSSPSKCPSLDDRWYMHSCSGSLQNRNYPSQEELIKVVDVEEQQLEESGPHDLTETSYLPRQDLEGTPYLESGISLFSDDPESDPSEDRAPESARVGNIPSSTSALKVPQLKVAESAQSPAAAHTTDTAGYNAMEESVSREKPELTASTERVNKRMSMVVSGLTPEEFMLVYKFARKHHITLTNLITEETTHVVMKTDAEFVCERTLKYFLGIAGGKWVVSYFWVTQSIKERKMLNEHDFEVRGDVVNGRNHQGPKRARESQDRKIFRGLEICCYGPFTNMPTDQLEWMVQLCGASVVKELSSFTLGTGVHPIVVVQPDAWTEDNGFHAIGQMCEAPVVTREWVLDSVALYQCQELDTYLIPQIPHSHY
BRCA1-BARD1, sequence (Q99728 whole entry): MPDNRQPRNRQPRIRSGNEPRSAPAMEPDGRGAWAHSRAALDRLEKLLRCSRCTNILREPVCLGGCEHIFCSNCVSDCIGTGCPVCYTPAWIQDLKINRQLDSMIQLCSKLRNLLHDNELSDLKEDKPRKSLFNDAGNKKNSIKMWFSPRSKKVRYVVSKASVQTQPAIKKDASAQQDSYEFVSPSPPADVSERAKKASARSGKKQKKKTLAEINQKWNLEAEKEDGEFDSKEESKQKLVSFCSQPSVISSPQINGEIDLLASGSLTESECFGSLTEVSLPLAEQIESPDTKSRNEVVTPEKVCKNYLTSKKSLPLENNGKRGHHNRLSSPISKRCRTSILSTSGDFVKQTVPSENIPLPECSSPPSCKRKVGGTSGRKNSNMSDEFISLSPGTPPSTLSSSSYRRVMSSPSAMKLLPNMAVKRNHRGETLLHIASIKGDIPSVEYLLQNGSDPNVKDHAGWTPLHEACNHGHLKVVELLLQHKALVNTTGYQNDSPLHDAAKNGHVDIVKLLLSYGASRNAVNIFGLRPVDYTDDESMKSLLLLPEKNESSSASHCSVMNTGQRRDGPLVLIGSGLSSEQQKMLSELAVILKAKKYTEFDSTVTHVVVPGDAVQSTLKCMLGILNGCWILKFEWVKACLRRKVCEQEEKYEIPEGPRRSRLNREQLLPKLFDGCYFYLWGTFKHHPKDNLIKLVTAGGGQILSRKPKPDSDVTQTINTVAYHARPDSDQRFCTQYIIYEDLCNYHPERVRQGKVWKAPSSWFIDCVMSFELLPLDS

binding to RING1B-BMI1 (RING1B-BMI1 [1]; ITC and NMR, FIG. 1): binds to RING1B-BMI1
Kd (RING1B-BMI1 [1]; binds directly to Ring1B-Bmi1, FIG. 1): 2.6 µM
Kd (RING1B-BMI1 [2]): < 20 µM
IC50 (RING1B-BMI1 [3]; FIG. 2): ~2 µM
RING1B-BMI1 H2Aub activity (RING1B-BMI1 [3]; in vitro, FIG. 2A): inhibits RING1B-BMI1 H2Aub activity
RING1B-PCGF1 activity (RING1B-PCGF1): inhibits RING1B-PCGF1 activity
inhibition of BRCA1-BARD1 E3 ligase (BRCA1-BARD1): does not inhibit
inhibition of TRIM37 E3 ligase (TRIM37): does not inhibit
Structure (SMILES): CC(C)c1c(-c2cccc3[nH]ccc23)[nH]c(C(=O)O)c1-c1c(Cl)ccc2[nH]ccc12 [COMPOUND 1, 3-(5-Chloro-1H-indol-4-yl)-5-(1H-indol-4-yl)-4-isopropyl-1H-pyrrole-2-carboxylic acid]
RING1B-BMI1 interaction with nucleosome [4]: inhibits RINIG1B-BMI1 interaction with nucleosome
PRC1 activity / H2Aub level in K562 cells [5]: blocks the activity of PRC1 complex; also recorded: decreases H2Aub level
H2Aub in TEX cells (H2Aub in TEX cells): inhibits H2Aub
global H2Aub (ChIP-seq) (H2Aub in TEX cells): global decrease in H2Aub
leukemia stem cell signature (RNA-seq) (H2Aub in TEX cells): reversing leukemia stem cell signature
differentiation of TEX cells (TEX cells): induces differentiation
stem cell marker CD34 (TEX cells): loss of stem cell marker CD34
colony formation of M9-ENL1 cells (M9-ENL1 cells [6]): effective in blocking colony formation
engraftment and leukemia development (M9-ENL1 cells [7]): strongly decreases engraftment and leukemia development
H2Aub in primary AML samples (primary AML samples): decreases H2Aub
colony formation, primary AML samples (primary AML samples): inhibits colony formation
stem cell marker CD34, primary AML samples (primary AML samples): decrease stem sell marker CD34
